Laboratory results: patent US10562912B2 (C&C Research Laboratories, priority 2013, dated 2020)

Assays:
Type in all cases: cell-based
DU-145 = experiment: Cell growth inhibition assay, prostate cancer cell line DU-145; conditions: Homo sapiens, DU-145 prostate cancer cell line
Procedure, shortened: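 Readout was CellTiter-Glo luminescence after 72–96 h of compound exposure at 37 °C, 5% CO2. Plating density was 3,000 cells/well for DU-145 and HCT116 and 5,000 cells/well for SW626. Controls were 0.1% DMSO wells and medium-only wells.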

STAT3 = target: T1, STAT3 (Homo sapiens, UniProt P40763); experiment: STAT3 reporter gene assay (luciferase), LNCaP stable cell line (pSTAT3-TA-luc), IL-6 stimulation
T1 construct: plasmid pSTAT3-TA-luc), which contains a stably operating STAT3 promoter; endogenous in cells
T1 sequence (P40763 whole entry): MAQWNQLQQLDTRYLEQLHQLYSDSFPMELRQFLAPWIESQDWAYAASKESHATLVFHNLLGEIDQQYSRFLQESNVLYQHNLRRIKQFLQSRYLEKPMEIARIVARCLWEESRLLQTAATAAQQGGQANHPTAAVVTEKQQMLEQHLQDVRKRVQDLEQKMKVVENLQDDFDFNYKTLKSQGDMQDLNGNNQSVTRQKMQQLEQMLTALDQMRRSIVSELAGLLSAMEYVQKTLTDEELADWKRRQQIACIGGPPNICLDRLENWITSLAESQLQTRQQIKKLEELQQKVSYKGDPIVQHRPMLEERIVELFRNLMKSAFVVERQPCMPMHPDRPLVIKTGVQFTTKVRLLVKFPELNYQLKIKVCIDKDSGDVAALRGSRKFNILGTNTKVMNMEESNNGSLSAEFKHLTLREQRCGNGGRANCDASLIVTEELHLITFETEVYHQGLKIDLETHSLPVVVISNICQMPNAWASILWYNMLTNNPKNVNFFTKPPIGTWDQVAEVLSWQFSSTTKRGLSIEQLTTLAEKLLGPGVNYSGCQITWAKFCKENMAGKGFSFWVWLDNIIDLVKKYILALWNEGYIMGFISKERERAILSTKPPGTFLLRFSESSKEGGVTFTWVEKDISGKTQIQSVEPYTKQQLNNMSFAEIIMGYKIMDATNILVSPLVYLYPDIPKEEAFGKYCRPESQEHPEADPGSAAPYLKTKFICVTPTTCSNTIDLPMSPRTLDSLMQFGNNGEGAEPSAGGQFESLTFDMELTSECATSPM
Procedure, shortened: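 LNCaP cells stably carrying pSTAT3-TA-luc, in RPMI1640 with 3% DCC-FBS, were treated with compound and then stimulated with 10 ng/mL IL-6 for 24–48 h at 37 °C. Luciferase activity was measured in lysates. A parallel plate measured viability by CellTiter-Glo, with stimulated 0.1% DMSO wells as the positive control.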

LNCaP = experiment: Cell growth inhibition assay, prostate cancer cell line LNCaP (medium with 10 ng/mL IL-6); conditions: Homo sapiens, medium supplemented with 10 ng/mL of IL-6, 10,000 cells/well

| IC50 (DU-145) [µM] | IC50 (STAT3) [µM] | IC50 (LNCaP) [µM] | SMILES |
| --- | --- | --- | --- |
| 0.43 | 0.92 | > 1.1 | CS(=O)(=O)Nc1ccc2sc(C(=O)Nc3cc(Cl)cc(-c4cnccn4)c3)cc2c1 [Example 338, N-(3-chloro-5-(pyrazin-2-yl)phenyl)-5-(methylsulfonamido)benzo[b]thiophene-2-carboxamide] |
| 0.31 | 0.76 | 0.56 | CS(=O)(=O)Nc1ccc2sc(C(=O)Nc3cc(Cl)cc(-c4cncc(Cl)n4)c3)cc2c1 [Example 339, N-(3-chloro-5-(6-chloropyrazin-2-yl)phenyl)-5-(methylsulfonamido)benzo[b]thiophene-2-carboxamide] |
| > 1.1 | > 10 | > 1.1 | Cn1cncc1-c1cc(Cl)cc(NC(=O)c2cc3cc(NS(C)(=O)=O)ccc3s2)c1 [Example 340, N-(3-chloro-5-(1-methyl-1H-imidazol-5-yl)phenyl)-5-(methylsulfonamido)benzo[b]thiophene-2-carboxamide] |
| 0.06 | 0.049 | 0.073 | CS(=O)(=O)Nc1ccc2sc(C(=O)Nc3cc(Cl)cc(C4(c5ccc(Cl)cc5)CC4)c3)cc2c1 [Example 432, N-(3-chloro-5-(1-(4-chlorophenyl)cyclopropyl)phenyl)-5-(methylsulfonamido)benzo[b]thiophene-2-carboxamide] |
| 0.006 | 0.013 | 0.01 | CS(=O)(=O)Nc1cc2cc(C(=O)Nc3cc(Cl)cc(C4(c5ccc(Cl)cc5)CC4)c3)sc2cc1Cl [Example 433, 6-chloro-N-(3-chloro-5-(1-(4-chlorophenyl)cyclopropyl)phenyl)-5-(methylsulfonamido)benzo[b]thiophene-2-carboxamide] |
| 0.026 | 0.009 | 0.012 | CN(c1ccc(Cl)cc1)c1cc(Cl)cc(NC(=O)c2cc3cc(NS(C)(=O)=O)c(Cl)cc3s2)c1 [Example 441, 6-chloro-N-(3-chloro-5-((4-chlorophenyl)(methyl)amino)phenyl)-5-(methylsulfonamido)benzo[b]thiophene-2-carboxamide] |
| 0.013 | 0.021 | 0.036 | CN(c1cc(Cl)cc(NC(=O)c2cc3cc(NS(C)(=O)=O)c(Cl)cc3s2)c1)c1ccc(F)cc1F [Example 442, 6-chloro-N-(3-chloro-5-((2,4-difluorophenyl)(methyl)amino)phenyl)-5-(methylsulfonamido)benzo[b]thiophene-2-carboxamide] |
| 0.02 | 0.065 | 0.039 | CC(C)Oc1cc(OC(F)(F)F)cc(N(C)c2cc(Cl)cc(NC(=O)c3cc4cc(NS(C)(=O)=O)ccc4s3)c2)c1 [Example 443, N-(3-chloro-5-((3-isopropoxy-5-(trifluoromethoxy)phenyl)(methyl)amino)phenyl)-5-(methylsulfonamido)benzo[b]thiophene-2-carboxamide] |
| 0.065 | 0.096 | 0.13 | CS(=O)(=O)Nc1ccc2sc(C(=O)Nc3cc(Cl)cc(Oc4ccc(F)cc4)c3)cc2c1 [Example 446, N-(3-chloro-5-(4-fluorophenoxy)phenyl)-5-(methylsulfonamido)benzo[b]thiophene-2-carboxamide] |
| 0.14 | 0.27 | 0.49 | COc1ccc(Oc2cc(Cl)cc(NC(=O)c3cc4cc(NS(C)(=O)=O)ccc4s3)c2)cc1 [Example 447, N-(3-chloro-5-(4-methoxyphenoxy)phenyl)-5-(methylsulfonamido)benzo[b]thiophene-2-carboxamide] |
| 0.16 | 0.23 | 0.35 | CS(=O)(=O)Nc1ccc2sc(C(=O)Nc3cc(Cl)cc(Oc4cc(F)ccc4F)c3)cc2c1 [Example 448, N-(3-chloro-5-(2,5-difluorophenoxy)phenyl)-5-(methylsulfonamido)benzo[b]thiophene-2-carboxamide] |
| 0.01 | 0.024 | 0.022 | CS(=O)(=O)Nc1cc2cc(C(=O)Nc3cc(Cl)cc(Oc4ccc(Cl)cc4)c3)sc2cc1Cl [Example 449, 6-chloro-N-(3-chloro-5-(4-chlorophenoxy)phenyl)-5-(methylsulfonamido)benzo[b]thiophene-2-carboxamide] |
| 0.06 | 0.1 | 0.099 | CS(=O)(=O)Nc1ccc2sc(C(=O)Nc3cc(Cl)cc(Oc4cccc(OC(F)(F)F)c4)c3)cc2c1 [Example 450, N-(3-chloro-5-(3-(trifluoromethoxy)phenoxy)phenyl)-5-(methylsulfonamido)benzo[b]thiophene-2-carboxamide] |
| 0.19 | 0.14 | 0.51 | CS(=O)(=O)Nc1ccc2sc(C(=O)Nc3cc(Cl)cc(Oc4ccc(C#N)cc4)c3)cc2c1 [Example 451, N-(3-chloro-5-(4-cyanophenoxy)phenyl)-5-(methylsulfonamido)benzo[b]thiophene-2-carboxamide] |
| 0.027 | 0.079 | 0.33 | CC(C)Oc1cc(Oc2cc(Cl)cc(NC(=O)c3cc4cc(NS(C)(=O)=O)ccc4s3)c2)cc(OC(F)(F)F)c1 [Example 452, N-(3-chloro-5-(3-isopropoxy-5-(trifluoromethoxy)phenoxy)phenyl)-5-(methylsulfonamido)benzo[b]thiophene-2-carboxamide] |
| 0.018 | 0.022 | 0.35 | CS(=O)(=O)Nc1cc2cc(C(=O)Nc3cc(Cl)cc(Oc4ccc(Cl)cc4)c3)sc2cc1Br [Example 453, 6-bromo-N-(3-chloro-5-(4-chlorophenoxy)phenyl)-5-(methylsulfonamido)benzo[b]thiophene-2-carboxamide] |
| 0.059 | 0.12 | 0.83 | CS(=O)(=O)Nc1ccc2sc(C(=O)Nc3cc(Cl)cc(Oc4ccc(OC(F)(F)F)cc4)c3)cc2c1 [Example 454, N-(3-chloro-5-(4-(trifluoromethoxy)phenoxy)phenyl)-5-(methylsulfonamido)benzo[b]thiophene-2-carboxamide] |
| 0.19 | 0.19 | 0.22 | CS(=O)(=O)Nc1ccc2sc(C(=O)Nc3cc(Cl)cc(Oc4cccc(C(F)(F)F)c4)c3)cc2c1 [Example 455, N-(3-chloro-5-(3-(trifluoromethyl)phenoxy)phenyl)-5-(methylsulfonamido)benzo[b]thiophene-2-carboxamide] |
| 0.25 | 0.19 | 0.3 | CS(=O)(=O)Nc1ccc2sc(C(=O)Nc3cc(Cl)cc(Oc4cccc(Cl)c4)c3)cc2c1 [Example 456, N-(3-chloro-5-(3-chlorophenoxy)phenyl)-5-(methylsulfonamido)benzo[b]thiophene-2-carboxamide] |
| 0.44 | 0.28 | 0.37 | COc1cccc(Oc2cc(Cl)cc(NC(=O)c3cc4cc(NS(C)(=O)=O)ccc4s3)c2)c1 [Example 457, N-(3-chloro-5-(3-methoxyphenoxy)phenyl)-5-(methylsulfonamido)benzo[b]thiophene-2-carboxamide] |
| 0.17 | 0.25 | 0.33 | CS(=O)(=O)Nc1ccc2sc(C(=O)Nc3cc(Cl)cc(Oc4cc(Cl)cc(C#N)c4)c3)cc2c1 [Example 458, N-(3-chloro-5-(3-chloro-5-cyanophenoxy)phenyl)-5-(methylsulfonamido)benzo[b]thiophene-2-carboxamide] |
| 0.59 | 0.36 | 0.79 | CS(=O)(=O)Nc1ccc2sc(C(=O)Nc3cc(Cl)cc(Oc4cccc(C#N)c4)c3)cc2c1 [Example 459, N-(3-chloro-5-(3-cyanophenoxy)phenyl)-5-(methylsulfonamido)benzo[b]thiophene-2-carboxamide] |
| 0.13 | 0.15 | 0.23 | CS(=O)(=O)Nc1ccc2sc(C(=O)Nc3cc(Cl)cc(Oc4ccc(F)c(F)c4)c3)cc2c1 [Example 460, N-(3-chloro-5-(3,4-difluorophenoxy)phenyl)-5-(methylsulfonamido)benzo[b]thiophene-2-carboxamide] |
| 0.11 | 0.14 | 0.24 | CS(=O)(=O)Nc1ccc2sc(C(=O)Nc3cc(Cl)cc(Oc4ccc(F)c(Cl)c4)c3)cc2c1 [Example 461, N-(3-chloro-5-(3-chloro-4-fluorophenoxy)phenyl)-5-(methylsulfonamido)benzo[b]thiophene-2-carboxamide] |
| 0.13 | 0.13 | 0.33 | CS(=O)(=O)Nc1ccc2sc(C(=O)Nc3cc(Cl)cc(Oc4ccc(Cl)cc4Cl)c3)cc2c1 [Example 462, N-(3-chloro-5-(2,4-dichlorophenoxy)phenyl)-5-(methylsulfonamido)benzo[b]thiophene-2-carboxamide] |
| 0.15 | 0.19 | 0.27 | CS(=O)(=O)Nc1ccc2sc(C(=O)Nc3cc(Cl)cc(Oc4cc(F)cc(F)c4)c3)cc2c1 [Example 463, N-(3-chloro-5-(3,5-difluorophenoxy)phenyl)-5-(methylsulfonamido)benzo[b]thiophene-2-carboxamide] |
| 0.16 | 0.17 | 0.31 | CS(=O)(=O)Nc1ccc2sc(C(=O)Nc3cc(Cl)cc(Oc4cc(Cl)cc(Cl)c4)c3)cc2c1 [Example 464, N-(3-chloro-5-(3,5-dichlorophenoxy)phenyl)-5-(methylsulfonamido)benzo[b]thiophene-2-carboxamide] |
